Measured values as given in patent US20140163095A1, “USE OF ERIBULIN IN THE TREATMENT OF BREAST CANCER” (priority 2012, published 2014).

System: locally recurrent or metastatic HER2 negative breast cancer
Assay: Phase II clinical trial of eribulin mesylate as first-line treatment (Part 1)
Assay type: in vivo, human
Conditions: for DOR (duration of response), Median months (95% CI) / TTR (time to first response), Median months (95% CI): 13 responders
Method: A multi-center, single-arm, phase II clinical trial of eribulin mesylate was performed to evaluate the objective response rate (ORR) (according to RECIST v1.1) to first-line treatment with single-agent eribulin mesylate in subjects with locally recurrent or metastatic HER2 negative breast cancer. Secondary objectives included the safety and tolerability of eribulin mesylate, time to first response, duration of response (DOR), and progression free survival (PFS).
Patients were excluded from the study if they had inflammatory breast cancer or had received prior chemotherapy, biologic therapy, or investigational therapy for locally recurrent or metastatic breast cancer (patients who received prior endocrine therapy were permitted).
HER2 status was determined by either fluorescence in situ hybridization (FISH) or 0 or 1+ by immunohistochemical (IHC) staining. Subjects with an HER2:FISH ratio of 1.8:2.2 were eligible, consistent with ASCO/CAP guidelines (Wolff et al., J. Clin. Oncol. 25:118-145, 2007).

[1] = All Subjects, listed as eribulin

`C=C1C[C@@H]2CC[C@@]34C[C@H]5O[C@H]6[C@@H](O3)[C@H]3O[C@H](CC[C@@H]3O[C@H]6[C@H]5O4)CC(=O)C[C@@H]3[C@@H](OC)[C@@H](C[C@H](O)CN)O[C@H]3C[C@H]3O[C@@H](CC[C@@H]1O2)C[C@@H](C)C3=C.CS(=O)(=O)O` [Eribulin, 11,15:18,21:24,28-Triepoxy-7,9-ethano-12,15-methano-9H,15H-furo[3,2-i]furo[2′,3′:5,6]pyrano[4,3-b][1,4]dioxacyclopentacosin-5(4H)-one, 2-[(2S)-3-amino-2-hydroxypropyl]hexacosahydro-3-methoxy-26-methyl-20,27-bis(methylene)-, (2R,3R,3aS,7R,8aS,9S,10aR,11S,12R,13aR,13bS,15S,18S,21S,24S,26R,28R,29aS)-methanesulfonate (salt)] was tested, and the “DOR (duration of response), Median months (95% CI)” value (All Subjects) was 7.4 (3.29, NE) months, the “TTR (time to first response), Median months (95% CI)” value (All Subjects) was 1.4 (1.31, 2.69) months and the “DOR (duration of response), Median months (95% CI)” value [1] was 7.4 months. For the same compound, the “TTR (time to first response), Median months (95% CI)” value [1] was 1.4 months, the “PFS, Median months (95% CI)” value (All Subjects, N 48) was 5.9 (3.48, 7.39) months and the “PFS, Median months (95% CI)” value (All Subjects, N 48, listed as eribulin) was 5.9 months. For the same compound, the “Clinical benefit rate (CR + PR + durable SD)” value (All, N = 48) was 22 (45.8) n (%), the “Complete response (CR)” value (All, N = 48) was 0 n (%) and the “Disease control rate (CR + PR + SD)” value (All, N = 48) was 36 (75.0) n (%). For the same compound, the “Not evaluable/unknown (response category)” value (from here on “Not evaluable/unknown”) (All, N = 48) was 1 (2.1) n (%), the “Objective response rate (ORR)” value (All, N = 48) was 13 (27.1) n (%) and the “Partial response (PR)” value (All, N = 48) was 13 (27.1) n (%). For the same compound, the “Progressive disease (PD)” value (All, N = 48) was 11 (22.9) n (%), the “DOR, Median months (95% CI)” value (ER+ Subjects, N 10) was 7.4 (3.29, NE) months and the “TTR, Median months (95% CI)” value (ER+ Subjects, N 10) was 1.4 (1.22, 2.66) months. For the same compound, the “PFS, Median months (95% CI)” value (ER+ Subjects, N 35) was 6.7 (4.14, 8.54) months, the “Clinical benefit rate (CR + PR + durable SD)” value (ER+, N = 35) was 19 (54.3) n (%) and the “Complete response (CR)” value (ER+, N = 35) was 0 n (%). The “Disease control rate (CR + PR + SD)” value (ER+, N = 35) was 29 (82.9) n (%), the “Not evaluable/unknown” value (ER+, N = 35) was 0 n (%) and the “Objective response rate (ORR)” value (ER+, N = 35) was 10 (28.6) n (%). For the same compound, the “Partial response (PR)” value (ER+, N = 35) was 10 (28.6) n (%), the “Progressive disease (PD)” value (ER+, N = 35) was 6 (17.1) n (%) and the “sum of target lesion diameters from baseline to post-baseline nadir” value (FIG. 10, in words) was “majority of patients experienced a decrease”. The “Objective response rate (ORR)” value (Triple Negative (ER−/PR−/HER2−), N = 10) was 3 (30.0) n (%), the “TTR, Median months (95% CI)” value (Triple Negative Subjects, N 3) was 2.9 (1.15, 5.59) months and the “PFS, Median months (95% CI)” value (Triple Negative Subjects, N 10) was 4.7 (1.05, NE) months. For the same compound, the “Clinical benefit rate (CR + PR + durable SD)” value (Triple Negative, N = 10) was 3 (30.0) n (%), the “Complete response (CR)” value (Triple Negative, N = 10) was 0 n (%) and the “Disease control rate (CR + PR + SD)” value (Triple Negative, N = 10) was 6 (60.0) n (%). For the same compound, the “Not evaluable/unknown” value (Triple Negative, N = 10) was 1 (10.0) n (%), the “Partial response (PR)” value (Triple Negative, N = 10) was 3 (30.0) n (%) and the “Progressive disease (PD)” value (Triple Negative, N = 10) was 3 (30.0) n (%). For the same compound, the “Objective response rate (ORR)” value (all patients (13/48)) was 27.1%.
